Species on record: Rattus norvegicus
Experiment: DrugMatrix - Regimen: Daily Repeat
Format: toxicity, organism-based, Sprague-Dawley
Parameters: regimen Daily Repeat, gender Male, age 6-8 weeks
Conditions: in vivo, po, route oral GAVAGE, vehicle .5 % CMC; for BASOPHIL / EOSINOPHIL / ERYTHROCYTE COUNT / HEMATOCRIT / HEMOGLOBIN / LEUKOCYTE COUNT / LYMPHOCYTE / MEAN CORPUSCULAR HEMOGLOBIN / MEAN CORPUSCULAR HEMOGLOBIN CONCENTRATION / MEAN CORPUSCULAR VOLUME / MONOCYTE / NEUTROPHIL / PLATELET COUNT: tissue Blood; for ALANINE AMINOTRANSFERASE / ALBUMIN / ALKALINE PHOSPHATASE / ASPARTATE AMINOTRANSFERASE / BLOOD UREA NITROGEN / CHLORIDE / CHOLESTEROL / CREATINE PHOSPHOKINASE / CREATININE / GLUCOSE / PHOSPHORUS / POTASSIUM / SODIUM / TOTAL BILIRUBIN / TOTAL PROTEIN: tissue Plasma
[1] = 0 mg/kg, 72 h, dose level Control, time 3 day
[2] = 0 mg/kg, 120 h, dose level Control, time 5 day
[3] = 570 mg/kg, 72 h, dose level High, time 3 day
[4] = 570 mg/kg, 120 h, dose level High, time 5 day

In the case of `COc1ccc2c(c1OC)C(=O)O[C@@H]2[C@H]1c2c(cc3c(c2OC)OCO3)CCN1C` [NOSCAPINE], the BASOPHIL [1] is reported as 0.68%, the EOSINOPHIL [1] is reported as 0.46% and the “ERYTHROCYTE COUNT” value [1] is reported as 7.15 x10E6/uL. For the same compound, the HEMATOCRIT [1] was 45.44%, the HEMOGLOBIN [1] was 14.1 G/DL and the “LEUKOCYTE COUNT” value [1] was 9.78 x10E3/uL. The LYMPHOCYTE [1] was 84.44%, the “MEAN CORPUSCULAR HEMOGLOBIN” value [1] was 19.72 pg and the “MEAN CORPUSCULAR HEMOGLOBIN CONCENTRATION” value [1] was 31 G/DL. The “MEAN CORPUSCULAR VOLUME” value [1] was 63.66 fL, the MONOCYTE [1] was 2.14% and the NEUTROPHIL [1] was 11.16%. The “PLATELET COUNT” value [1] was 1378.2 x10E3/uL, the “ALANINE AMINOTRANSFERASE” value [1] was 42.33 u/L and the ALBUMIN [1] was 3.8 G/DL. The “ALKALINE PHOSPHATASE” value [1] was 388.17 u/L, the “ASPARTATE AMINOTRANSFERASE” value [1] was 68 u/L and the “BLOOD UREA NITROGEN” value [1] was 16.17 mg/dL. For the same compound, the CHLORIDE [1] was 96.67 MEQ/L, the CHOLESTEROL [1] was 71 mg/dL and the “CREATINE PHOSPHOKINASE” value [1] was 156.17 u/L. For the same compound, the CREATININE [1] was 0.57 mg/dL, the GLUCOSE [1] was 193.67 mg/dL and the PHOSPHORUS [1] was 11.43 mg/dL. The POTASSIUM [1] was 7 MEQ/L, the SODIUM [1] was 140.33 MEQ/L and the “TOTAL BILIRUBIN” value [1] was 0.48 mg/dL. For the same compound, the “TOTAL PROTEIN” value [1] was 6.8 G/DL, the BASOPHIL [2] was 1.47% and the EOSINOPHIL [2] was 1%. The “ERYTHROCYTE COUNT” value [2] was 7.12 x10E6/uL, the HEMATOCRIT [2] was 45.47% and the HEMOGLOBIN [2] was 14.1 G/DL. The “LEUKOCYTE COUNT” value [2] was 11.38 x10E3/uL, the LYMPHOCYTE [2] was 82.57% and the “MEAN CORPUSCULAR HEMOGLOBIN” value [2] was 19.82 pg. For the same compound, the “MEAN CORPUSCULAR HEMOGLOBIN CONCENTRATION” value [2] was 31.02 G/DL, the “MEAN CORPUSCULAR VOLUME” value [2] was 63.88 fL and the MONOCYTE [2] was 2.2%. For the same compound, the NEUTROPHIL [2] was 11.97%, the “PLATELET COUNT” value [2] was 1267 x10E3/uL and the “ALANINE AMINOTRANSFERASE” value [2] was 38 u/L. The ALBUMIN [2] was 3.72 G/DL, the “ALKALINE PHOSPHATASE” value [2] was 391 u/L and the “ASPARTATE AMINOTRANSFERASE” value [2] was 65.83 u/L. For the same compound, the “BLOOD UREA NITROGEN” value [2] was 14.17 mg/dL, the CHLORIDE [2] was 107.67 MEQ/L and the CHOLESTEROL [2] was 61 mg/dL. For the same compound, the “CREATINE PHOSPHOKINASE” value [2] was 148.33 u/L, the CREATININE [2] was 0.57 mg/dL and the GLUCOSE [2] was 177.17 mg/dL. For the same compound, the PHOSPHORUS [2] was 12.07 mg/dL, the POTASSIUM [2] was 7.2 MEQ/L and the SODIUM [2] was 151.5 MEQ/L. The “TOTAL BILIRUBIN” value [2] was 0.58 mg/dL, the “TOTAL PROTEIN” value [2] was 6.72 G/DL and the BASOPHIL [3] was 0.35%. The EOSINOPHIL [3] was 0.35%, the “ERYTHROCYTE COUNT” value [3] was 7.71 x10E6/uL and the HEMATOCRIT [3] was 48.95%. For the same compound, the HEMOGLOBIN [3] was 15.2 G/DL, the “LEUKOCYTE COUNT” value [3] was 9.57 x10E3/uL and the LYMPHOCYTE [3] was 82.8%. For the same compound, the “MEAN CORPUSCULAR HEMOGLOBIN” value [3] was 19.7 pg, the “MEAN CORPUSCULAR HEMOGLOBIN CONCENTRATION” value [3] was 31.05 G/DL and the “MEAN CORPUSCULAR VOLUME” value [3] was 63.4 fL. For the same compound, the MONOCYTE [3] was 3.35%, the NEUTROPHIL [3] was 12% and the “PLATELET COUNT” value [3] was 1473 x10E3/uL. The “ALANINE AMINOTRANSFERASE” value [3] was 27.5 u/L, the ALBUMIN [3] was 3.9 G/DL and the “ALKALINE PHOSPHATASE” value [3] was 381.5 u/L. The “ASPARTATE AMINOTRANSFERASE” value [3] was 56 u/L, the “BLOOD UREA NITROGEN” value [3] was 17.5 mg/dL and the CHLORIDE [3] was 96 MEQ/L. For the same compound, the CHOLESTEROL [3] was 131 mg/dL, the “CREATINE PHOSPHOKINASE” value [3] was 176 u/L and the CREATININE [3] was 0.45 mg/dL. It also gave a GLUCOSE [3] of 166 mg/dL, a PHOSPHORUS [3] of 12.8 mg/dL and a POTASSIUM [3] of 6.5 MEQ/L. For the same compound, the SODIUM [3] was 140.5 MEQ/L, the “TOTAL BILIRUBIN” value [3] was 0.55 mg/dL and the “TOTAL PROTEIN” value [3] was 7.25 G/DL. The BASOPHIL [4] was 1.17%, the EOSINOPHIL [4] was 0.53% and the “ERYTHROCYTE COUNT” value [4] was 7.1 x10E6/uL. For the same compound, the HEMATOCRIT [4] was 42.8%, the HEMOGLOBIN [4] was 13.67 G/DL and the “LEUKOCYTE COUNT” value [4] was 9.28 x10E3/uL. For the same compound, the LYMPHOCYTE [4] was 75.47%, the “MEAN CORPUSCULAR HEMOGLOBIN” value [4] was 19.27 pg and the “MEAN CORPUSCULAR HEMOGLOBIN CONCENTRATION” value [4] was 31.97 G/DL. The “MEAN CORPUSCULAR VOLUME” value [4] was 60.33 fL, the MONOCYTE [4] was 2.07% and the NEUTROPHIL [4] was 19.87%. For the same compound, the “PLATELET COUNT” value [4] was 1766.33 x10E3/uL, the “ALANINE AMINOTRANSFERASE” value [4] was 36 u/L and the ALBUMIN [4] was 3.7 G/DL. The “ALKALINE PHOSPHATASE” value [4] was 318.5 u/L, the “ASPARTATE AMINOTRANSFERASE” value [4] was 57 u/L and the “BLOOD UREA NITROGEN” value [4] was 13.5 mg/dL. For the same compound, the CHLORIDE [4] was 106 MEQ/L, the CHOLESTEROL [4] was 100 mg/dL and the “CREATINE PHOSPHOKINASE” value [4] was 142 u/L. The CREATININE [4] was 0.45 mg/dL, the GLUCOSE [4] was 188 mg/dL and the PHOSPHORUS [4] was 12.45 mg/dL. For the same compound, the POTASSIUM [4] was 7 MEQ/L, the SODIUM [4] was 149 MEQ/L and the “TOTAL BILIRUBIN” value [4] was 0.2 mg/dL. The “TOTAL PROTEIN” value [4] was 6.75 G/DL.

Reference: ChEMBL document CHEMBL3885881, “DrugMatrix”
